Columns and labels:
[1] = system: calves after scoop dehorning; assay: Lying behavior by accelerometers before and after dehorning; assay type: in vivo, Holstein calves
From the text: Following catheter placement, calves were restrained twice daily using a rope halter to simulate study sampling procedures. Further more, calves were run through the chute handling facilities once daily and manipulated in the same manner as the proposed study procedures. Cattle were also fitted with commercially manufactured 3-dimensional accelerometers (GP 1 SENSR, Reference LLC, Elkader, Iowa) at the time of catheter placement in a similar manner as described in previous studies (Robert et al, 2009). Each device was placed in padded neoprene housing and affixed on the lateral aspect of the right rear limb just proximal to the fetlock. The accelerometers were left on the calves until study completion (approximately 7 days after placement).
The accelerometers sampled at 100 Hz and summarized values for the selected variables every 5 seconds. Five variables were recorded by the accelerometers for each 5-second interval: average acceleration in each of the three axes (X, Y, and Z), the combined average magnitude for all three axes, and the maximum combined vector magnitude. At trial completion, data were downloaded from each device for analysis using previously validated and described methods (White et al, 2008; Robert et al, 2009). […]

[2] = system: calves with induced lameness; assay: Pressure mat gait analysis in amphotericin B induced lameness; assay type: in vivo, British x Continental beef calves; conditions: PO once daily for 4 days from 4 h after lameness induction; mean ±SEM
Protocol: After acclimatization, lameness was induced as previously described (Kotschwar et al, 2009). More specifically, chemical synovitis/arthritis was induced with an injection of 20 mg amphotericin B (X-Gen Pharmaceuticals, Inc, Big Flats, N.Y.) into the left hind distal interphalangeal joint of each calf (Period 2). All calves were first restrained in a chute with a head gate as conducted through the acclimatization period, and the hind leg was restrained with ropes at the fetlock and stifle. […]
Animal activity was assessed continuously with pedometers.
A commercially available floor mat-based pressure/force measurement system (MatScan, Tekscan, Inc., South Boston, Mass.) was used to record and analyze the affected feet of each calf. […] Using research grade software (HUGEMAT Research 5.83, Tekscan, Inc., South Boston, Mass.), contact pressure, contact area, and stance phase duration in the affected feet were measured. Surface area was calculated by area only of the loaded or “contact” sensing elements inside the measurement box. Contact pressure was calculated as force on the loaded sensing elements inside the measurement box divided by the contact area.

With Cc1cnc(NC(=O)C2=C(O)c3ccccc3S(=O)(=O)N2C)s1 [meloxicam, 4-hydroxy-2-methyl-N-(5-methyl-2-thiazolyl)-2H-1,2-benzothiazine-3-carboxamide-1,1-dioxide] the “proportion of time spent lying, post-dehorning” value ([1]; 0.5 mg/kg IV immediately prior to dehorning) was 43.0%, the “proportion of time spent lying, pre-dehorning” value ([1]; meloxicam group (0.5 mg/kg IV at dehorning), baseline period) was 43.1% and the contact force [2] was 869.80 ± 54.96 kg. It also gave a stride length [2] of 72.82±1.59 cm.
